We go through 20 compounds from patent US20230113037A1 (Bayer Aktiengesellschaft, priority 2019, published 2023).

As a reminder, the IC50 is the concentration needed to halve the response being measured.

Assay [1] has as its target T1, AHR (Homo sapiens, UniProt P35869).
T1 construct: U87 MG glioblastoma cells (ATCC #HTB-14) endogenously expressing AHR; endogenous in cells; host or cells: U87 MG glioblastoma cells (ATCC #HTB-14)
T1 sequence (P35869 11-848): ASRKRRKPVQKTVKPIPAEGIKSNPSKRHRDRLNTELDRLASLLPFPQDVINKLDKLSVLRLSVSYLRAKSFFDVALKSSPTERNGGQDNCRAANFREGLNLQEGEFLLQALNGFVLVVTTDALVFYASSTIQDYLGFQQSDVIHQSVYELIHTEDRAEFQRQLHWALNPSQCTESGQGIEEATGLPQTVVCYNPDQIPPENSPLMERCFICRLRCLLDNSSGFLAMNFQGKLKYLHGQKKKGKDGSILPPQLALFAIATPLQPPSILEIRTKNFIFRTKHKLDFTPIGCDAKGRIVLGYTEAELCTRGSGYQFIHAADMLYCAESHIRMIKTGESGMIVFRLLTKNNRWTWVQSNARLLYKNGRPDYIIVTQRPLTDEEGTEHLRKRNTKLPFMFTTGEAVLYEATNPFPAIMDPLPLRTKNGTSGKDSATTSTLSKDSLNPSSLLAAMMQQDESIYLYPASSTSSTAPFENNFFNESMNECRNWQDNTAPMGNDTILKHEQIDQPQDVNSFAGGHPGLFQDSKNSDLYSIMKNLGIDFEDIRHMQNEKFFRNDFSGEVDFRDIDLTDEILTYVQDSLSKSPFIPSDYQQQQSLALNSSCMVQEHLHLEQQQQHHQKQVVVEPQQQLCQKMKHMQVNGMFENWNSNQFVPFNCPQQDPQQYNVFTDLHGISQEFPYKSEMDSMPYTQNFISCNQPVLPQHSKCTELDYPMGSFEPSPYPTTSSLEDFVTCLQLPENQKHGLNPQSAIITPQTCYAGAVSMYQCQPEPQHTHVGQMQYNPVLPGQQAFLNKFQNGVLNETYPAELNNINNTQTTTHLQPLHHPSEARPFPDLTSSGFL
The assay can be described thus: In vitro assay 1: antagonism in human cell line (AHR transactivation, firefly luciferase reporter, kynurenic acid prestimulated). Conditions: AHR Antagonism Human IC50 [M]. The format is cell-based. In a few lines:
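Antagonism is measured against kynurenic acid prestimulation in U87 MG glioblastoma cells carrying stable DRE-luciferase and Renilla reporters. Positive inhibition control: 150 μM kynurenic acid with 5 μM staurosporine. Values are normalized to controls; repeats are averaged or given as medians.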
On the technique in general: In a reporter assay the amount or activity of a reporter protein is the signal.

Assay [2] addresses T2, AHR (Mus musculus, UniProt P30561).
T2 sequence (P30561 1-848 P471L/N533S/M589L): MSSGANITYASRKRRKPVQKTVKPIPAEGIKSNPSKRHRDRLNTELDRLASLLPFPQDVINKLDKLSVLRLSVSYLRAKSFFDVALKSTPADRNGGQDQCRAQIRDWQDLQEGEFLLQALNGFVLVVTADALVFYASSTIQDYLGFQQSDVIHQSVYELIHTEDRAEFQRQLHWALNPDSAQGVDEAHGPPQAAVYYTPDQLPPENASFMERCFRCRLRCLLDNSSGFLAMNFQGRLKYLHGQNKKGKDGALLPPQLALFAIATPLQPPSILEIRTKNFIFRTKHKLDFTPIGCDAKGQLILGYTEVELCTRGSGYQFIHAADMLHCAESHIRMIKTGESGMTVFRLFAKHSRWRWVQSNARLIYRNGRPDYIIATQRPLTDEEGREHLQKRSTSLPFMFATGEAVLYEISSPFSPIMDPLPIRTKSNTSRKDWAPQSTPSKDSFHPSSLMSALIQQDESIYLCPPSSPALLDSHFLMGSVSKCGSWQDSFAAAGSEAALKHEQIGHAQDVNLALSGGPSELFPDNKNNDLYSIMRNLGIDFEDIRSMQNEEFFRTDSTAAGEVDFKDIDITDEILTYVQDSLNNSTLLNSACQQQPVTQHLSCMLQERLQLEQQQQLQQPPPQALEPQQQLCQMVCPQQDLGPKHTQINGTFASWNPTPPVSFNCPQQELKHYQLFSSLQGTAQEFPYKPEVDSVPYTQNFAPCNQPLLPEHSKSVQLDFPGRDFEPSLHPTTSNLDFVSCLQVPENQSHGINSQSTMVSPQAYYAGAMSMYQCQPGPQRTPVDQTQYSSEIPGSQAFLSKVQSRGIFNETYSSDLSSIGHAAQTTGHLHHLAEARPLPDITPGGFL
The assay can be described thus: In vitro assay 3: antagonism in mouse cell line (AHR transactivation, firefly luciferase reporter, kynurenic acid prestimulated). The format is cell-based. In a few lines:
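Luminescence from an AHR-dependent DRE-luciferase reporter, stably integrated in mouse cells, quantifies blockade of kynurenic acid-driven activation. Unstimulated cells mark maximal inhibition; normalization uses both control types, and multiply tested compounds carry mean or median values.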

[3] abbreviates: read-out: AHR Antagonism Mouse IC50, mouse Hepa 1c1c7 cells, 200 μM kynurenic acid, 20 hours.
Where [4] appears, read: mouse Hepa 1c1c7 cells, 200 μM kynurenic acid, 20 hours, read-out: AHR Antagonism Mouse IC50.
Where [5] appears, read: Hepa 1c1c7 cells, 200 μM kynurenic acid, 20 hours, firefly luciferase reporter, read-out: AHR Antagonism Mouse IC50.

Values joined by “and” are separate entries in the source; they are usually repeats but may differ in a detail not shown here. Identical values can stand only once. Like-named read-outs stand apart in the source and are kept apart here. Bounds are passed on as bounds.

For the compound `O=C1NCCCC[C@H]1Nc1nc2ccccc2c2nc(-c3cccc(F)c3)nn12` [Example 11, (3R)-3-{[2-(3-fluorophenyl)[1,2,4]triazolo[1,5-c]quinazolin-5-yl]amino}azepan-2-one], the concentration for half-maximal inhibition (IC50) was 1.36e-09 M against AHR [1] and 0.569 nM at AHR [2] (setting [3]).

Turning to `COc1ccc(-c2nc3c4ccccc4nc(N[C@@H]4CCCCNC4=O)n3n2)cc1` [Example 29, (3R)-3-{[2-(4-methoxyphenyl)[1,2,4]triazolo[1,5-c]quinazolin-5-yl]amino}azepan-2-one], the 50% inhibitory concentration (IC50) against AHR [1] was determined as 4.03e-10 M; at AHR [2] (setting [4]), 0.524 nM.

Take `CC(C)[C@@H](Nc1nc2c(Br)cccc2c2nc(-c3cnn(C)c3)nn12)C(=O)NCCN1CCN(C)CC1` [Example 927, N^2-[7-bromo-2-(1-methyl-1H-pyrazol-4-yl)[1,2,4]triazolo[1,5-c]quinazolin-5-yl]-N-[2-(4-methylpiperazin-1-yl)ethyl]-D-valinamide]: the concentration for half-maximal inhibition (IC50) was 6.5e-08 M at AHR [1] (firefly luciferase reporter) and 34.4 nM at AHR [2] (setting [5]).

With `NC(=O)[C@@H](CO)Nc1nc2ccccc2c2nc(-c3ccc(OC(F)(F)F)cc3)nn12` [Example 329, N^2-{2-[4-(trifluoromethoxy)phenyl][1,2,4]triazolo[1,5-c]quinazolin-5-yl}-D-serinamide], the IC50 was found to be 5.94e-09 M against AHR [1] and 2.89 nM at AHR [2] (setting [4]).

Consider `COc1cccc(-c2nc3c4ccccc4nc(NC4CCN(C)C4=O)n3n2)c1` (single isomer, unassigned) [Example 122, 3-{[2-(3-methoxyphenyl)[1,2,4]triazolo[1,5-c]quinazolin-5-yl]amino}-1-methylpyrrolidin-2-one], for which the IC50 against AHR [1] is 5.55e-08 M; at AHR [2] (setting [4]), 26.1 nM.

With `O=C1NCCC[C@H]1Nc1nc2ccccc2c2nc(-c3ccncc3F)nn12` [Example 482, (3R)-3-{[2-(3-fluoropyridin-4-yl)[1,2,4]triazolo[1,5-c]quinazolin-5-yl]amino}piperidin-2-one], the figures for the concentration for half-maximal inhibition (IC50) against AHR [1] and on AHR [2] (setting [4]) were 2.23e-06 M and 3160 nM, respectively.

`COc1ccc(-c2nc3c4c(C)cccc4nc(N[C@@H]4CCCCNC4=O)n3n2)cc1` [Example 243, (3R)-3-{[2-(4-methoxyphenyl)-10-methyl[1,2,4]triazolo[1,5-c]quinazolin-5-yl]amino}azepan-2-one]: the 50% inhibitory concentration (IC50) was 4.02e-09 M at AHR [1] and 14.8 nM on AHR [2] (setting [4]).

In the case of `COc1ccc(-c2nc3c4ccccc4nc(N[C@H](C)C(=O)NCC(C)(C)N)n3n2)cc1` [Example 784, N-(2-amino-2-methylpropyl)-N^2-[2-(4-methoxyphenyl)[1,2,4]triazolo[1,5-c]quinazolin-5-yl]-D-alaninamide], the IC50 came to 9.16e-08 M against AHR [1] (firefly luciferase reporter) and 48.1 nM on AHR [2] (setting [5]).

With `O=C1NCCCC[C@H]1Nc1nc2ccccc2c2nc(-c3cnn(C4CCNCC4)c3)nn12` [Example 646, (3R)-3-({2-[1-(piperidin-4-yl)-1H-pyrazol-4-yl][1,2,4]triazolo[1,5-c]quinazolin-5-yl}amino)azepan-2-one], the IC50 at AHR [1] was 2.89e-06 M; on AHR [2] (setting [4]) it was > 20000 nM and 11800 nM.

`CC[C@@H](Nc1nc2ccccc2c2nc(-c3ccc(Br)cc3OC(F)(F)F)nn12)C(N)=O` [Example 697, (2R)-2-({2-[4-bromo-2-(trifluoromethoxy)phenyl][1,2,4]triazolo[1,5-c]quinazolin-5-yl}amino)butanamide]: the IC50 against AHR [1] turned out to be 6.22e-09 M; on AHR [2] (setting [4]) it was 1.19 nM.

As to `O=C1NCCCC[C@H]1Nc1nc2ccccc2c2nc(-c3cnn(C(F)F)c3)nn12` [Example 534, (3R)-3-({2-[1-(difluoromethyl)-1H-pyrazol-4-yl][1,2,4]triazolo[1,5-c]quinazolin-5-yl}amino)azepan-2-one], the IC50 against AHR [1] was determined as 2.03e-09 M; at AHR [2] (setting [4]), 0.828 nM.

Consider `COc1ccc(-c2nc3c4cc(Cl)ccc4nc(N[C@@H]4CNCCNC4=O)n3n2)cc1` [Example 278, (6R)-6-{[9-chloro-2-(4-methoxyphenyl)[1,2,4]triazolo[1,5-c]quinazolin-5-yl]amino}-1,4-diazepan-5-one], for which the IC50 is 3.72e-07 M against AHR [1] and 51 nM at AHR [2] (setting [4]).

On to `COc1cccc(-c2nc3c4cc(F)ccc4nc(NC4CCNC4=O)n3n2)c1` (single isomer, unassigned) [Example 186, 3-{[9-fluoro-2-(3-methoxyphenyl)[1,2,4]triazolo[1,5-c]quinazolin-5-yl]amino}pyrrolidin-2-one], for which the IC50 worked out at 2.09e-08 M against AHR [1] and 27.6 nM at AHR [2] (setting [4]).

Take `COc1ccc(-c2nc3c4cccc(Br)c4nc(N[C@H](C)C(=O)N4CCOC[C@H]4C)n3n2)cc1` [Example 911, (2R)-2-{[7-bromo-2-(4-methoxyphenyl)[1,2,4]triazolo[1,5-c]quinazolin-5-yl]amino}-1-[(3R)-3-methylmorpholin-4-yl]propan-1-one]: the IC50 is 1.57e-09 M at AHR [1] (firefly luciferase reporter) and 1.98 nM at AHR [2] (read-out: AHR Antagonism Mouse IC50, Hepa 1c1c7 cells, 200 μM kynurenic acid, 20 hours, firefly luciferase reporter).

For the compound `CCC[C@@H](Nc1nc2ccccc2c2nc(-c3ccc(OC)cc3OC(F)(F)F)nn12)C(=O)NC` [Example 510, N^2-{2-[4-methoxy-2-(trifluoromethoxy)phenyl][1,2,4]triazolo[1,5-c]quinazolin-5-yl}-N-methyl-D-norvalinamide], the IC50 on AHR [1] was found to be 5.39e-08 M; at AHR [2] (setting [4]), 11.7 nM.

Consider `CCC[C@@H](Nc1nc2ccccc2c2nc(-c3ccccc3OC(F)(F)F)nn12)C(=O)NC` [Example 464, N-methyl-N^2-{2-[2-(trifluoromethoxy)phenyl][1,2,4]triazolo[1,5-c]quinazolin-5-yl}-D-norvalinamide], for which the IC50 on AHR [1] worked out at 5.89e-08 M; on AHR [2] (setting [4]), 3.91 nM.

For `CCOc1cccc2c1nc(N[C@@H]1CCCCNC1=O)n1nc(-c3ccc(OC)cc3)nc21` [Example 667, (3R)-3-{[7-ethoxy-2-(4-methoxyphenyl)[1,2,4]triazolo[1,5-c]quinazolin-5-yl]amino}azepan-2-one], the 50% inhibitory concentration (IC50) was 2.68e-09 M on AHR [1] and 4.56 nM at AHR [2] (setting [4]).

Turning to `COc1ccc(-c2nc3c4ccccc4nc(N[C@H](C)C(=O)NC4CCCCC4)n3n2)cc1` [Example 665, N-cyclohexyl-N2-[2-(4-methoxyphenyl)[1,2,4]triazolo[1,5-c]quinazolin-5-yl]-D-alaninamide], the half-inhibitory concentration (IC50) was found to be 1.87e-08 M on AHR [1] and 11.3 nM on AHR [2] (setting [3]).

Consider `CC(C)n1cc(-c2nc3c4cccc(F)c4nc(N[C@@H]4CNCCNC4=O)n3n2)cn1` [Example 971, (6R)-6-({7-fluoro-2-[1-(propan-2-yl)-1H-pyrazol-4-yl][1,2,4]triazolo[1,5-c]quinazolin-5-yl}amino)-1,4-diazepan-5-one], for which the 50% inhibitory concentration (IC50) at AHR [1] (firefly luciferase reporter) was 7.72e-07 M; on AHR [2] (setting [5]), 286 nM.

Regarding `CCn1cc(-c2nc3c4cccc(OC)c4nc(N[C@@H]4CCCCNC4=O)n3n2)c(C)n1` [Example 753, (3R)-3-{[2-(1-ethyl-3-methyl-1H-pyrazol-4-yl)-7-methoxy[1,2,4]triazolo[1,5-c]quinazolin-5-yl]amino}azepan-2-one], the figures for the IC50 at AHR [1] and at AHR [2] (setting [4]) were 9.89e-09 M and 40.6 nM, respectively.
